Five compounds from patent publication US20230241243A1, “CARRIER PARTICLE-DRUG CONJUGATES, SELF-IMMOLATIVE LINKERS, AND USES THEREOF” (priority 2020, published 2023) can be followed below.

Series [1] can be described thus: Drug-release assay of nanoparticle-conjugated linker-payloads under cleavage conditions (Cat-B, redox-responsive or pH-sensitive cleaving study), RP-HPLC. The format is in vitro ADME. To be noted: linker-payload conjugated to DBCO-functionalized silica nanoparticle, 37° C., 24 hours. In short, it runs like this: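 Azide linker-drugs were click-conjugated to DBCO-functionalized ultrasmall silica nanoparticles and incubated under cleavage conditions, e.g., Cat-B in 25 mM MES, 5 mM DTT, pH 5.0. Released versus non-released drug was quantified by C18 RP-HPLC peak area. Gradients were 0.01% TFA water/acetonitrile for protease/redox linkers and water/acetonitrile for pH-sensitive linkers.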

The next series relates to KB cell line. To be noted: read-out: IC50 in KB cell line (++++); FA ligands per particle 12-22; linker-drug conjugates per particle 17-25. How it is done:
(§1) The in vitro cytotoxicity of the NDCs disclosed herein were tested in cancer cells. The cancer cells were cultured in folic acid-free medium (RPMI1640, ThermoFisher, GIBCO) for at least one week before the study. Cells were plated in opaque 96-well plates at a density of 3×10^3 cells per well (total of […]) and allowed to attach overnight. The following day, cells were treated with NDC (FA-CDC) prepared using the linker-payload conjugate precursor compound 202 (Example 33), at a concentration range of 0-50 nM (0, 0.001, 0.005, 0.01, 0.05, 0.1, 0.5, 1, 5, 10, 50 nM) by adding […] of 10x stock FA-CDC Solution.
(§2) Cells were treated for a pre-defined exposure time (depending on the study design, e.g., 4-6 hours, or 7 days). In the case of short-exposure-time viability study, cancer cells in each wells were washed with […] PBS and refreshed with […] of cell medium. After washing, the plates were returned back to 37° C. incubator for 7 days before the viability assay. In the case of 7-day-exposure-time viability study, no additional washing step was performed. After 7 days, the cell viability was assessed using the CellTiter-Glo2.0 assay (Promega) according to manufacturer's instructions. Data for both viability and proliferation were plotted using Prism7 software (GraphPad).

In a further series the test system is SKOV-3 cell line. Description: In vitro cell viability assay of FA-CDCs (CellTiter-Glo2.0). The format is cell-based. As to conditions: FA ligands per particle 12-22; linker-drug conjugates per particle 17-25; read-out: IC50 inSKOV-3 cell line (+++). How it is done: as §1
as §2, with “(GraphPad). Representative cell viability results of six FA-CDCs with similar surface density of Folic Acid targeting ligands and drug linkers is presented in provided in Table 4.” for “(GraphPad).”

Usually IC50 stands for the concentration needed to halve the response being measured. As to `CC[C@@]1(O)C(=O)OCc2c1cc1n(c2=O)Cc2c-1nc1cc(F)c(C)c3c1c2[C@@H](NC(=O)OCCSSCCNC(=O)CCOCCOCCOCCOCCOCCOCCOCCOCCOCCN=[N+]=[N-])CC3` [Example 57, 37-azido-8-oxo-11,14,17,20,23,26,29,32,35-nonaoxa-3,4-dithia-7-azaheptatriacontyl ((1S,9S)-9-ethyl-5-fluoro-9-hydroxy-4-methyl-10,13-dioxo-2,3,9,10,13,15-hexahydro-1H,12H-benzo[de]pyrano[3′,4′:6,7]indolizino[1,2-b]quinolin-1-yl)carbamate], the “% of Payload Release in 24 Hours Under Cleavage Conditions” value (“% of Payload Release” for short) in series [1] is given as “+++ (‘+++’ indicates 51-75% release)”. In addition, the IC50 in the series with KB cell line came to 0.6 nM; in the series with SKOV-3 cell line, 0.9 nM.

Consider `CC[C@@]1(O)C(=O)OCc2c1cc1n(c2=O)Cc2c-1nc1cc(F)c(C)c3c1c2[C@@H](NC(=O)OCc1ccc(NC(=O)[C@H](CCCCN)NC(=O)[C@H](Cc2ccccc2)NC(=O)CCOCCOCCOCCOCCOCCOCCOCCOCCOCCN=[N+]=[N-])cc1)CC3` (single isomer, unassigned) [Example 25], for which the “% of Payload Release” value in series [1] is recorded as “+++ (‘+++’ indicates 51-75% release)”. Moreover, the IC50 in the series with SKOV-3 cell line stood at 0.4 nM.

As for `CCc1c2c(nc3ccc(OCC(=O)N/N=C(\C)c4cccc(OCCOCCOCCOCCOCCOCCN=[N+]=[N-])c4)cc13)-c1cc3c(c(=O)n1C2)COC(=O)[C@]3(O)CC` [Example 70, (S,E)-N′-(1-(3-((17-azido-3,6,9,12,15-pentaoxaheptadecyl)oxy)phenyl)ethylidene)-2-((4,11-diethyl-4-hydroxy-3,14-dioxo-3,4,12,14-tetrahydro-1H-pyrano[3′,4′:6,7]indolizino[1,2-b]quinolin-9-yl)oxy)acetohydrazide], the IC50 with SKOV-3 cell line amounted to 17.9 nM.

Regarding `CC[C@@]1(O)C(=O)OCc2c1cc1n(c2=O)Cc2c-1nc1cc(F)c(C)c3c1c2[C@@H](NC(=O)OCc1ccc(NC(=O)[C@H](CCCCN)NC(=O)[C@@H](NC(=O)CCOCCOCCOCCOCCOCCOCCOCCOCCOCCN=[N+]=[N-])C(C)C)cc1)CC3` [Example 33, 4-((32S,35S)-35-(4-aminobutyl)-1-azido-32-isopropyl-30,33-dioxo-3,6,9,12,15,18,21,24,27-nonaoxa-31,34-diazahexatriacontan-36-amido)benzyl ((1S,9S)-9-ethyl-5-fluoro-9-hydroxy-4-methyl-10,13-dioxo-2,3,9,10,13,15-hexahydro-1H,12H-benzo[de]pyrano[3′,4′:6,7]indolizino[1,2-b]quinolin-1-yl)carbamate], in series [1], the “% of Payload Release” value was “++++ (‘++++’ indicates 76-100% release)”. The IC50 is 0.3 nM with KB cell line and 0.13 nM with SKOV-3 cell line.

For the compound `CC[C@@]1(O)C(=O)OCc2c1cc1n(c2=O)Cc2c-1nc1cc(F)c(C)c3c1c2[C@@H](NC(=O)OCc1ccc(NC(=O)[C@H](CCCNC(N)=O)NC(=O)[C@@H](NC(=O)CCOCCOCCOCCOCCOCCOCCOCCOCCOCCN=[N+]=[N-])C(C)C)cc1)CC3` [Example 10, 4-((32S,35S)-1-azido-32-isopropyl-30,33-dioxo-35-(3-ureidopropyl)-3,6,9,12,15,18,21,24,27-nonaoxa-31,34-diazahexatriacontan-36-amido)benzyl-((1S,9S)-9-ethyl-5-fluoro-9-hydroxy-4-methyl-10,13-dioxo-2,3,9,10,13,15-hexahydro-1H,12H-benzo-[de]-pyrano-[3′,4′:6,7]-indolizino-[1,2-b]-quinolin-1-yl)-carbamate], in series [1], the “% of Payload Release” value was “+++ (‘+++’ indicates 51-75% release)”. Also, in the series with SKOV-3 cell line, the 50% inhibitory concentration (IC50) worked out at 10.7 nM.
